Experimental data taken from PMC12808100, “The non-catalytic DNA polymerase ε subunit is an NPF motif recognition protein” (Nature Communications, 2025).

Target: His6-avi-MBP-tagged POLE2
Experiment: Single-point nHU-MS with recombinant His6-avi-MBP-POLE2 bait, Jurkat extract
Format: binding, human
Conditions: for log2FC / BI / pKapp: bait av-His6-MBP-tagged full-length POLE2
Text: So far, our study only focused on a few hand-picked NPF motifs and studied them as short synthetic peptides. However, many other proteins may be present in the proteome that could bind to POLE2 and their putative NPF motifs are embedded in their natural structures that can greatly affect their binding properties. To investigate interactions between POLE2 and intact, full length proteins proteome-wide, we used nHU-MS experiments with recombinant His6-avi-MBP-tagged POLE2 as bait and purified His6-avi-MBP as a control. Even though we are aware that this recombinant POLE2 may bind to NPF motifs with a somewhat altered affinity, we assumed that this would affect all NPF motif-mediated interactions equally, allowing an unbiased affinity ranking of all identified partners. Single point nHU measurements were performed at 26 μM POLE2 concentration and the recovered supernatant was measured by label free proteomic MS measurements (Fig. 3A, Supplementary Figs. 8A, 9, Supplementary Data 1).
Single-point nHU experiments with protein baits were carried out nearly identically with two key modifications. First, the resin saturation step was carried out by mixing 50 μl streptavidin resin with 0.5−1 ml 50 μM biotinylated protein solution and the mixture was incubated for 1.5 h at 4 °C with constant agitation. Second, instead of using estimated bait concentrations, we measured it experimentally. An extra aliquot of resin stock was prepared alongside the nHU samples that were identically processed that were used to eluate the immobilized proteins under harsh conditions, in order to experimentally quantify the Cbait by using densitometry of Coomassie stained SDS-PAGE that included a protein calibration series. For this, 50 μl bait-saturated resin aliquots were mixed with 200 μl 4x Laemmli Sample Buffer (120 mM Tris-HCl pH 7, 8% SDS, 100 mM DTT, 32% glycerol, 0.004% bromphenol blue, 1% β-mercaptoethanol), instead of cell extract. After 15 min incubation at 95 °C, these samples were analyzed by SDS-PAGE using protein calibration standard, made from recombinant MBP. Densitometry was carried out after Coomassie staining on raw Tif images by using Fiji ImageJ 1.53c and experimental bait concentration were determined by adjusting for molecular weight differences between MBP and MBP-POLE2 constructs.
Samples were digested overnight at 37 °C.

[1] = significant apparent affinity of endogenous prey protein for POLE2 bait, single-point nHU-MS, Figure S11
[2] = non-zero for significant partners, MS6_Varjosalo

Substance	pKapp_sign [1]	further results
SSNSQ [PNPT1]	4.014	–
TTAATSV [SEC23IP]	4.243	–
PSSST [GIGYF2]	4.1436	–
PSAST [EPN2, endogenous full length prey protein]	4.531	–
PPSSKVSSHS [CNTRL]	4.363	–
SLGEI [GYG1]	4.703	–
PYCR1: endogenous full length prey protein	4.011	log2FC (MS6_Varjosalo): -0.3412
KDDY [DNAJC10]	4.21	–
NPFI [DNAJA3, endogenous full length prey protein]	4.13	–
TRIM27	4.707	–
DEGFK [ACACA, endogenous full length prey protein]	3.986	BI (MS6_Varjosalo): 0.2013; log2FC (MS6_Varjosalo): -0.3242; pKapp (MS6_Varjosalo): 3.986; pKapp_sign [2]: 3.986
ASVD [CPSF4]	4.068	–
RSVD [PLEKHA7]	4.312	–
PVLGNI [SSBP3]	4.288	–
PSASS [TTF2, endogenous full length prey protein]	4.771	–
NPFA [WDR59, endogenous full length prey protein]	4.457	–
RARA [INKA1]	5.687	–
MIOS	4.5333	–
AGL	4.38	–
PSASG [NUP214, endogenous full length prey protein]	3.986	BI (MS6_Varjosalo): 0.2012; log2FC (MS6_Varjosalo): -0.3242; pKapp (MS6_Varjosalo): 3.986; pKapp_sign [2]: 3.986
RHRA [FIP1L1]	4.277	–
ARLRH [AKNA]	4.257	–
NPFT [NOSIP, endogenous full length prey protein]	4.058	–
PVGGND [USP9X, endogenous full length prey protein]	4.835	–

Substance	pKapp_sign [1]	further results
TSPTSD [NUMB, endogenous full length prey protein]	4.316	–
PSVST [ZMYM1]	4.45	–
QDLGNI [CTSA]	4.815	–
PSASS [ERCC6L, endogenous full length prey protein]	4.421	–
QPLRH [OIP5]	4.225	–
PSPST [EXO1]	4.499	–
CRIPT	4.909	–
KPTSTYSLSS [VIPAS39]	4.13	–
NPFK [CCDC134, endogenous full length prey protein]	4.219	–
LSVD [LEF1]	4.471	–
NSVD [PLEKHA5, endogenous full length prey protein]	4.548	–
PSASR [NUP188]	4.034	–
PAAST [NUP58]	4.1	–
SLRED [INPP5K]	4.539	–
TNSTSD [PIKFYVE]	4.132	–
NPFQ [SSBP2, endogenous full length prey protein]	4.583	–
KPKKPLTSSS [MAPRE1]	4.964	–
RSRSVS [ZNRF1]	4.487	–
NPFQ [MAPK1IP1L, endogenous full length prey protein]	4.047	–
TRIM25	4.096	–
PSTST [UBR5, endogenous full length prey protein]	4.008	BI (MS6_Varjosalo): 0.2095; log2FC (MS6_Varjosalo): -0.3392; pKapp (MS6_Varjosalo): 4.008; pKapp_sign [2]: 4.008
SSQSY [EIF4E2]	4.429	–
PSASM [RFWD3]	4.618	–
